Our source for the IC50 values is US10787441B2, “Hepatitis C virus inhibitors” (priority 2016, dated 2020).

Each structure is given as a SMILES string. A value given as a limit tells only on which side of the number the result lay.

Format in all cases: cell-based, Hepatitis C virus
For test [1], the system named is HCV genotype 1b Con1 strain subgenomic luciferase replicon. The experiment in a line: HCV replicon assay, genotype 1b. Conditions: Hepatitis C virus. On the procedure:
The HCV luciferase replicon assay measures the ability of a test compound to inhibit HCV replication in cell culture after 3 days of treatment in a human hepatoma cell line (Huh-7) bearing an HCV replicon containing a luciferase-neomycin phosphotransferase fusion gene. The inhibition of HCV replication was measured by quantification of luciferase protein expression. Briefly, Huh-7 cells containing either the HCV genotype 1a H77 strain or genotype 1b Con1 strain subgenomic luciferase replicon (H1a-luc or Zluc, respectively) were grown in DMEM containing glucose, L-glutamine and sodium pyruvate, 10% fetal bovine serum (FBS), 100 IU/mL penicillin, 100 μg/mL streptomycin, 2 mM GlutaMAX, non-essential amino acids and 0.25 (H1a-luc) or 0.5 (Zluc) mg/mL G418. GlutaMAX was obtained from Invitrogen, Corp.; all other media reagents were obtained from Mediatech, Inc. For dose-response testing, the cells were seeded in 96-well plates at 1×10^4 (H1a-luc) or 7.5×10^3 (Zluc) cells/well in a volume of 50 μL, and incubated at 37° C./5% CO2. Three hours after plating, 50 μL of ten 5-fold serial dilutions of compound were added, and cell cultures were incubated at 37° C./5% CO2 for 72 hours. In all cases, Huh-7 cells lacking the HCV replicon served as negative control. To assess luciferase expression, the media/compound was removed from the plates and ONE-glo Luciferase assay reagent (Promega) was added to each well. The assay plates were shaken for 3 minutes at room temperature and luciferase activity for each well was measured with a 1 sec read time on the Victor^3V multilabel counter using a 700 nm cut-off filter (Perkin Elmer). EC50 values were calculated from dose response curves from the resulting best-fit equations determined by Microsoft Excel and XLfit 4.1 software.
For orientation: A replicon is a self-replicating genome or part of one, used to study replication in cells.

The test system of test [2] is HCV genotype 1a H77 strain subgenomic luciferase replicon. The experiment in a line: HCV replicon assay, genotype 1a. Conditions: Hepatitis C virus, read-out: 1a IC50 (nM), HCV genotype 1a. An outline of the steps: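 Replicon-bearing Huh-7 cells (1×10^4 H1a-luc or 7.5×10^3 Zluc per well) dosed 3 h after plating with ten 5-fold compound dilutions, 72 h at 37 °C/5% CO2. Luciferase measured by ONE-glo luminescence; EC50 from dose-response fits, replicon-free Huh-7 as negative control.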

The subject of test [3] is HCV 1aY93H mutant replicon. The experiment in a line: HCV replicon assay, genotype 1a Y93H mutant. To be noted: Hepatitis C virus, read-out: 1aY93H IC50 (nM), HCV genotype 1a, Y93H mutant. In outline: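 Huh7.5 cells were electroporated with luciferase-bearing HCV genotype 1a Y93H mutant replicon RNA. Cells were treated 4 h after seeding with ten 1:5 serial compound dilutions and incubated for 4 days at 37° C. Replication was read out as luciferase luminescence, and EC50 was derived from dose-response curves.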

The test system of the next test is HCV 2b. The experiment in a line: HCV replicon assay, genotype 2b. To be noted: Hepatitis C virus, read-out: 2b IC50 (nM), HCV genotype 2b.
Test [4] concerns HCV genotype 3a NS5A within the 1b-replicon. The experiment in a line: HCV replicon assay, genotype 3a (NS5A intergenotypic stable cell line). To be noted: Hepatitis C virus, read-out: 3a IC50 (nM), HCV genotype 3a. An outline of the steps:
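Stable Huh7 line carrying a genotype 1b luciferase replicon with genotype 3a NS5A substituted. Cells were treated 72 h at 37 °C with ten 5-fold compound dilutions. Luciferase signal quantified replication; EC50 from dose-response curve fits.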

For orientation: IC50 means the concentration that gives 50% inhibition.

Turning to `COC(=O)N[C@H](C(=O)N1C[C@H](F)C[C@H]1c1ncc(-c2ccc3c(ccc4oc5ccc(-c6cnc([C@@H]7C[C@@H](F)CN7C(=O)[C@@H](NC(=O)OC)C(C)C)[nH]6)cc5c(=O)c43)c2)[nH]1)C(C)C` [Compound 27, methyl [(1S)-1-({(2S,4R)-4-fluoro-2-[5-(10-{2-[(2S,4R)-4-fluoro-1-{(2S)-2-[(methoxycarbonyl)amino]-3-methylbutanoyl}pyrrolidin-2-yl]-1H-imidazol-5-yl}-12-oxo-12H-benzo[a]xanthen-3-yl)-1H-imidazol-2-yl]pyrrolidin-1-yl}carbonyl)-2-methylpropyl]carbamate], the concentration for half-maximal inhibition (IC50) in test [1] was 0.591 nM; in test [2], no less than 1 nM; in test [3], 96.6 nM; in the test on HCV 2b, no less than 100 nM; in test [4], no less than 1 nM.
